Like-named read-outs stand apart in the source and are kept apart here.
How the values were obtained:
[1] = test system: A549 human lung cancer cells; test: sulforhodamine B (SRB) assay, surviving cell fraction; type: cell-based
BAX = biological target: T1, BAX (Homo sapiens, UniProt Q07812); test: BAX phosphorylation in 32P-labeled A549 cells (autoradiography); type: cell-based; conditions: nicotine 1 μM, 60 min
T1 construct: A549 cells expressing endogenous BAX were metabolically labeled; endogenous in cells; host or cells: A549 cells
T1 sequence (Q07812 whole entry): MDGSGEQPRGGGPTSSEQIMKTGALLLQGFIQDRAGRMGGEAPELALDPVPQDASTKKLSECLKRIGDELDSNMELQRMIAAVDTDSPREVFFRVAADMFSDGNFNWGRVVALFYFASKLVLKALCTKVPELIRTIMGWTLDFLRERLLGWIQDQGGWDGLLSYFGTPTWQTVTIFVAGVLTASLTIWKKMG
Protocol: (§1) (A) A549 cells expressing endogenous BAX were metabolically labeled with ^32P-orthophosphoric acid and treated with nicotine for 60 min. BAX was immunoprecipitated by using an agarose-conjugated BAX antibody. Phosphorylation of BAX was determined by autoradiography. […] (C) A549 cells were treated with cisplatin (40 μM) in the absence or presence of nicotine (1 μM) for various times as indicated. Cell viability was analyzed for Annexin-V and PI binding by flow cytometry. […] Cells were metabolically labeled with ^32P-orthophosphoric acid and treated with nicotine for 60 min. Phosphorylated GFP-tagged BAX was analyzed by autoradiography. […] After 48 h, cells were treated with cisplatin (Cis) in the absence or presence of nicotine for 24 h. Cell viability was analyzed as in (C).
(§2) To test whether BAX phosphorylation occurs in human lung cancer cells, A549 cells were metabolically labeled and treated with nicotine (1 μM) for 60 min. […] To test whether nicotine induces BAX phosphorylation at ser184, WT, S184A or S184E cDNA in the pcDNA3 mammalian expression vector was transfected into H157 cells.

BAX Ser184 = test: BAX phosphorylation in H157 cells transfected with WT, S184A or S184E BAX; type: cell-based, human; conditions: H157 cells expressing WT, 60 min
Protocol: as §1, §2

A549 cells [2] = test system: A549 cells
[3] = test system: A549 lung cancer xenografts; test: TUNEL assay of apoptosis in xenograft tumor tissues; conditions: 50 mg/kg for 24 h
Protocol: Apoptosis in tumor tissues was measured by TUNEL assay.
Apoptosis in tumor tissues was analyzed by TUNEL assay.

[4] = test system: primary normal small airway epithelial cells (SAEC); test: apoptosis by ApoAlert Annexin-V kit in normal small airway epithelial cells; conditions: 1 μM, 48 h
Protocol: (§3) (B) H1299, A549 or SAEC cells were treated with various types of small molecules (1 μM) for 48 h. Cell viability was assessed using ApoAlert Annexin-V kit. DMSO or cisplatin (40 μM) was used as a negative or positive control, respectively.

H1299 cells = test: apoptosis by ApoAlert Annexin-V kit in H1299 cells; conditions: 1 μM, 48 h
Protocol: as §3

A549 cells [5] = test: apoptosis by ApoAlert Annexin-V kit in A549 cells; conditions: 1 μM, 48 h
Protocol: as §3

[6] = test system: A549 lung cancer xenografts; test: A549 subcutaneous lung tumor xenografts in nude mice
Protocol: At day 6, tumors were removed and photographed. […] Tumor volume was estimated by caliper measurements, data are mean±s.e.m. […] Apoptosis in tumor tissues was measured by TUNEL assay.

[7] = A549 cells, 48 h, SRB assay, read-out: IC50

Structure (SMILES): CC(=O)N1CCN(CCOc2ccccc2C=C2c3ccccc3-c3ccc([N+](=O)[O-])cc32)CC1 [CYD-2-17, 1-(4-{2-[2-(2-Nitro-fluoren-9-ylidenemethyl)-phenoxy]-ethyl}-piperazin-1-yl)-ethanone]
- IC50 [1, 7]: 5.08 µM

Structure (SMILES): NCCOc1ncccc1C=C1c2ccccc2-c2ccc([N+](=O)[O-])cc21 [CYD-4-61, 2-[3-(2-Nitro-fluoren-9-ylidenemethyl)-pyridin-2-yloxy]-ethylamine]
- IC50 ([1]; A549, 48 h): 0.026 µM

Structure (SMILES): CN1CCCC1c1cccnc1 (stereo not drawn) [nicotine]
- BAX phosphorylation (BAX): potently stimulates serine phosphorylation of BAX
- phosphorylation of WT and mutant BAX (BAX Ser184): induces phosphorylation of WT but not S184A or S184E mutant BAX
- survival of A549 cells following cisplatin treatment (A549 cells [2]; cisplatin 40 μM, nicotine 1 μM): significantly prolongs survival of A549 cells

Structure (SMILES): NCCOc1ccccc1C=C1c2ccccc2-c2ccc([N+](=O)[O-])cc21 [CYD-2-11, 2-[2-(2-Nitro-fluoren-9-ylidenemethyl)-phenoxy]-ethylamine]
- IC50 [1, 7]: 1.93 µM

Structure (SMILES): O=[N+]([O-])c1ccc2c(c1)C(=Cc1ccccc1O)c1ccccc1-2 [SMBA1]
- apoptosis in tumor tissues (TUNEL) [3]: resulted in apoptosis in tumor tissues
- apoptotic effect on normal cells compared to H1299 or A549 cells [4]: significantly less apoptotic effect
- apoptotic effect (H1299 cells): potent apoptotic effect
- apoptotic cell death in combination with cisplatin (A549 cells [2]; combination with cisplatin): enhances apoptotic cell death
- apoptotic effect (A549 cells [5]): potent apoptotic effect
- tolerability of treatment doses ([6]; 25, 50 or 75 mg/kg i.p. q.d. for two weeks): well tolerated
- effect on established tumor xenografts (tumor volume) ([6]; 25, 50 or 75 mg/kg i.p. q.d. for two weeks, preliminary results): significant regression of established lung cancer xenografts
- toxicities on liver, kidney and heart ([6]; doses of 50-75 mg/kg): well tolerated without significant toxicities on liver, kidney and heart

Structure (SMILES): O=[N+]([O-])c1ccc2c(c1)C(=Cc1ccccc1OC1CCNCC1)c1ccccc1-2 [CYD-2-13, 4-[2-(2-Nitro-fluoren-9-ylidenemethyl)-phenoxy]-piperidine]
- IC50 [1, 7]: 5.91 µM
